One assay relates to HEK293. Briefly: cells. Type of assay: functional, cell-based. To be noted: Homo sapiens.
Assay [1] deals with T1, Nuclear receptor subfamily 0 group B member 1 (Homo sapiens, UniProt P51843).
T1 sequence (P51843 whole entry): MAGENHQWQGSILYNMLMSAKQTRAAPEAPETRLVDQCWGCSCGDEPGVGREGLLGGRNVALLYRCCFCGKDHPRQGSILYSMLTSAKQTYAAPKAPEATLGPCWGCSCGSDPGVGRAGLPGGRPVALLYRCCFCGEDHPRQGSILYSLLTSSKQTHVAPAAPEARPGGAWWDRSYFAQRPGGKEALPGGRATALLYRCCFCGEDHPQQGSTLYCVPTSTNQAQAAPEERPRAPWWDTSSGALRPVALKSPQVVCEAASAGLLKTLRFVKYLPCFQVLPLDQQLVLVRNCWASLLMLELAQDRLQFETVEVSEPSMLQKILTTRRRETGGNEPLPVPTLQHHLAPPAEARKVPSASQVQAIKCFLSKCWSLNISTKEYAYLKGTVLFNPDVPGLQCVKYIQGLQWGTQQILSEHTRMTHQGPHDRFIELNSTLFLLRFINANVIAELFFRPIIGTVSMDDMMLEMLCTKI
Briefly: Luminescence-based cell-based high throughput dose response assay for inhibitors of the orphan nuclear receptor subfamily 0, group B, member 1 (DAX1; NR0B1). [Related pubchem assays (depositor defined):AID504766, AID504790]. In kind it is functional.

In a further assay the test system is Vero. Briefly: Vero cell cytotoxicity, cytotoxicity control for flavivirus capping enzyme inhibitors (AID 588742). To be noted: Chlorocebus sabaeus. In kind it is functional.
In a further assay the target is Cysteine protease ATG4B (Homo sapiens, UniProt Q9Y4P1). In kind it is functional.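 Also: Fluorescence-based dose-response confirmation assay measuring inhibition of ATG4B activity.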
A further assay has as its target Phospholipase A2 (Homo sapiens, UniProt P04054). In kind it is functional.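 Also: confirmatory dose-response counterscreen on phospholipase A2, testing hits that came from an ultra-high-throughput screen for ATG4B inhibitors.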
The target in assay [2] is Neuropeptides B/W receptor type 1 (Homo sapiens, UniProt P48145). Kind of assay: GPR7 antagonist potency, late-stage follow-up, cell-based, fluorescence, dose response, set 5 (AID 588566). In kind it is functional.
Assay [3] concerns the target Melanin-concentrating hormone receptor 1 (Homo sapiens, UniProt Q99705). Briefly: Late-stage fluorescence-based counterscreen for antagonists of the G-protein coupled receptor 7 (GPR7): cell-based dose response assay to identify antagonists of the melanin-concentrating hormone receptor 1 (MCHR1) Set 5. In kind it is functional. (Counterscreens check selectivity or assay interference.)

The target in the next assay is T2, Hexokinase-1 (Homo sapiens, UniProt P19367).
T2 sequence (P19367 whole entry): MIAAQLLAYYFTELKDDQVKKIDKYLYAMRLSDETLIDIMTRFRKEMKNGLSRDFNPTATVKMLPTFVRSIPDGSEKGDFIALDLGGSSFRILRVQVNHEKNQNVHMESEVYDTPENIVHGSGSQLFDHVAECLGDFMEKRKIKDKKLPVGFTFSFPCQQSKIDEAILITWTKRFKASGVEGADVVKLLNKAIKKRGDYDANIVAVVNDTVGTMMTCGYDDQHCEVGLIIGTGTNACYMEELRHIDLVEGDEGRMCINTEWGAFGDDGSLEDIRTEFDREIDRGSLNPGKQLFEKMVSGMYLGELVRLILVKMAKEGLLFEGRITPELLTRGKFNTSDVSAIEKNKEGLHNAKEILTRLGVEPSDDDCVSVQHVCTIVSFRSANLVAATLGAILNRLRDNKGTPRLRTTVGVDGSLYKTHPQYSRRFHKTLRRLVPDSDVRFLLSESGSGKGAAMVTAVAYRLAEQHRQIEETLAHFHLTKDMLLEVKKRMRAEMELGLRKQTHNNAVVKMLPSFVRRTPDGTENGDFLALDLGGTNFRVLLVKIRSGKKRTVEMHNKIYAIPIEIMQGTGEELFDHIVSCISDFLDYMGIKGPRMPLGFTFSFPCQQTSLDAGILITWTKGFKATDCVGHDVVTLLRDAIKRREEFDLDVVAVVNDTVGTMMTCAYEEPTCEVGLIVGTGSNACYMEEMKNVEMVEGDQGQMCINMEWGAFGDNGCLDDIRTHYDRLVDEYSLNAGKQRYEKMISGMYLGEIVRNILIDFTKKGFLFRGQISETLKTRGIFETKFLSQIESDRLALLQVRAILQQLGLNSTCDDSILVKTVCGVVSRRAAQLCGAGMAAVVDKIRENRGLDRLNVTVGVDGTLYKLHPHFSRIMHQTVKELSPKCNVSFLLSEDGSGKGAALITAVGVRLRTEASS
Kind of assay: HK1 enzyme inhibition by HKDC1 hits, SAR follow-up, selectivity assay for HKDC1 inhibitor project, biochemical, set 2, resazurin fluorescence coupled readout (AID 588356). In kind it is functional. (In general: Resazurin is reduced to fluorescent resorufin, in cell work by metabolically active cells.)

The next assay concerns the target T3, Hexokinase HKDC1 (Homo sapiens, UniProt Q2TB90).
T3 sequence (Q2TB90 whole entry): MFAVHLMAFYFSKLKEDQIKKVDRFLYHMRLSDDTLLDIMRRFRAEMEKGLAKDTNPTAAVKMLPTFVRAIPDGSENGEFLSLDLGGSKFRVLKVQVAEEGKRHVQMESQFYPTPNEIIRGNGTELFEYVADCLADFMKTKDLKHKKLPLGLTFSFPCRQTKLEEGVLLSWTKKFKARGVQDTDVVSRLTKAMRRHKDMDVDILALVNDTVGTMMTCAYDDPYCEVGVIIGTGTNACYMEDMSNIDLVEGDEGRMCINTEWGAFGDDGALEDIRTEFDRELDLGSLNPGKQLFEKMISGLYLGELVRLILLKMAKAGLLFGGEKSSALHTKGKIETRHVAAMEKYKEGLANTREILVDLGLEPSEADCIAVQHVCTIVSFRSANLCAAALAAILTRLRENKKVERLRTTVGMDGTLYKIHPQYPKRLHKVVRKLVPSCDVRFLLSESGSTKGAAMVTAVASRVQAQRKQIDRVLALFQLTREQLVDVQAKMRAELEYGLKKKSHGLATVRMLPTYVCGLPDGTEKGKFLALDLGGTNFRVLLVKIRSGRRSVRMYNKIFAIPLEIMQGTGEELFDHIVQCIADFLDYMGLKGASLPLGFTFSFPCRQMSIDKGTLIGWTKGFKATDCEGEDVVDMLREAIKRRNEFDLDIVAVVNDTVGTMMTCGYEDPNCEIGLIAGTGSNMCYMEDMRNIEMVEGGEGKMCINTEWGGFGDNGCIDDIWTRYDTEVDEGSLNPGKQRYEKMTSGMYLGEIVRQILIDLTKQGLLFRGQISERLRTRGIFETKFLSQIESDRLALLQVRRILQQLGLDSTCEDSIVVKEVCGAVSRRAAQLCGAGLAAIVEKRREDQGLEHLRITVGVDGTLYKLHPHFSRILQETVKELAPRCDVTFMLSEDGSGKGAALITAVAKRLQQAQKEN
Kind of assay: HKDC1 hexokinase inhibitors, SAR follow-up, biochemical, set 2 (AID 588355). Type of assay: functional.

Assay [4] is described as follows: growth suppression of PTEN-null colon cells, dose response, cell-based, HCT116 PTEN knockout (AID 1047).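 Also: HCT116 colon tumor cells with PTEN knocked out; cells exposed to compound for 60 hours before readout; potency for loss of cell viability measured by luminescence.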 Type of assay: functional.
Assay [5] is described as follows: growth suppression of beta-catenin-knockout colon cells, dose response, cell-based, HCT116, human colon tumor (AID 1045).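 Also: HCT116 colon tumor cells with beta catenin knocked out; cells exposed to compound for 60 hours.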 In kind it is functional.
Assay [6] concerns the target Casein kinase I isoform delta (Homo sapiens, UniProt P48730). In kind it is functional.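 Also: measured as one member (CSNK1D) of a kinome panel.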
For assay [7], the target named is T4, Apoptotic protease-activating factor 1 (Homo sapiens, UniProt O14727).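 Also: caspase-3 cleavage of fluorogenic Rh110 DEVD substrate downstream of apoptosome activation.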
T4 sequence (O14727 whole entry): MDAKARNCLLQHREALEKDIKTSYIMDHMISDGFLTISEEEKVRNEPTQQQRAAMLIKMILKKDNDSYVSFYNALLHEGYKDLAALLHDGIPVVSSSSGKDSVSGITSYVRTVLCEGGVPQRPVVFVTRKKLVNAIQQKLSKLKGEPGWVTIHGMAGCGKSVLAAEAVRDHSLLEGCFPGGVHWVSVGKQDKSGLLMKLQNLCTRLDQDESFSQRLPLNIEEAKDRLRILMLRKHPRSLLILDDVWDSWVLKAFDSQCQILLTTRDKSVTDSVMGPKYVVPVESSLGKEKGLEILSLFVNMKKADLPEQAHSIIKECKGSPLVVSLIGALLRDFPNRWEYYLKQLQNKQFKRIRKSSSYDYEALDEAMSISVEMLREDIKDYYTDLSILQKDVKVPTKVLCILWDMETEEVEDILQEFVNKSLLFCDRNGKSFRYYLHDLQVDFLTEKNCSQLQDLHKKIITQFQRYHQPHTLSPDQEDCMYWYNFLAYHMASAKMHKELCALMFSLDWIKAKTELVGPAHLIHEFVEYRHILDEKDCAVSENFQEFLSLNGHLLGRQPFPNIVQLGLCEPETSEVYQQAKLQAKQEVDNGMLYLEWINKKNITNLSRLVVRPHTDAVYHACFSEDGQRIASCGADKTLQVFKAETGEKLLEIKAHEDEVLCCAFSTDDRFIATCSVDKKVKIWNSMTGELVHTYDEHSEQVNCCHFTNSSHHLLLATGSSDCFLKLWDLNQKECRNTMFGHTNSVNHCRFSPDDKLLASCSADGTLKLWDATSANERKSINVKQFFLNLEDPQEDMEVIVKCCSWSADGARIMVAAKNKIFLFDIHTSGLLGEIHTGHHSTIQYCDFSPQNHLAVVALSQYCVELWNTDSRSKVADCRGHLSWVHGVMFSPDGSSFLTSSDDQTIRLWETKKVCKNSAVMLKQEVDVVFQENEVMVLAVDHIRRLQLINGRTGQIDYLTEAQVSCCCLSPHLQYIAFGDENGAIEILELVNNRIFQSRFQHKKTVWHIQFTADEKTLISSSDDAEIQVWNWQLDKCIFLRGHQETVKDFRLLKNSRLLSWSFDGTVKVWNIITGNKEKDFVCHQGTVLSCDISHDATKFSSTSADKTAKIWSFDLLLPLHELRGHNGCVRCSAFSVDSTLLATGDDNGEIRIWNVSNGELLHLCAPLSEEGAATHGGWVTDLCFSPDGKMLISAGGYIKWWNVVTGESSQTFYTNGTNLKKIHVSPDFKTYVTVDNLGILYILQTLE
Kind of assay: SAR analysis of small molecule Activators of Apaf-1 in a Fluorescent assay. In kind it is functional. The settings on record: read-out: EC50_Mean.

Assay [8] concerns the target Beta-2 adrenergic receptor (Homo sapiens, UniProt P07550). Kind of assay: beta2AR agonists driving receptor internalization, dose response, cell-based, FAP fluorogen, flow cytometry, cherry pick 1 (AID 588763). Type of assay: functional.
The target of assay [9] is Mitogen-activated protein kinase 13 (Homo sapiens, UniProt O15264). Type of assay: functional.
For assay [10], the target named is Voltage-gated inwardly rectifying potassium channel KCNH2 (Homo sapiens, UniProt Q12809). To be noted: Potency.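 Also: confirmatory quantitative high-throughput screen measuring inhibition of hERG channel activity.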

Data on 13 compounds can be found in ChEMBL document CHEMBL1201862, “PubChem BioAssay data set” (2004).

The source made the active and inactive calls.

Sequence of Neuropeptides B/W receptor type 1 (P48145 whole entry): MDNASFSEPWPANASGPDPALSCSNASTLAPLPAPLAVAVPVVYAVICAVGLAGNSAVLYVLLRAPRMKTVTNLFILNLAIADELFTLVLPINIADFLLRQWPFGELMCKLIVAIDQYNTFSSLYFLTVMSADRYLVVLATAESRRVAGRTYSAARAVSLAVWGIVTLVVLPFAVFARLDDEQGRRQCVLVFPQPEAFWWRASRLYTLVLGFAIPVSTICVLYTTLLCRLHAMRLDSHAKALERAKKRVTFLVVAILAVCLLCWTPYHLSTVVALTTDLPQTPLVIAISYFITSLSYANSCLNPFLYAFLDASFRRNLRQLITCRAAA
Sequence of Melanin-concentrating hormone receptor 1 (Q99705 whole entry): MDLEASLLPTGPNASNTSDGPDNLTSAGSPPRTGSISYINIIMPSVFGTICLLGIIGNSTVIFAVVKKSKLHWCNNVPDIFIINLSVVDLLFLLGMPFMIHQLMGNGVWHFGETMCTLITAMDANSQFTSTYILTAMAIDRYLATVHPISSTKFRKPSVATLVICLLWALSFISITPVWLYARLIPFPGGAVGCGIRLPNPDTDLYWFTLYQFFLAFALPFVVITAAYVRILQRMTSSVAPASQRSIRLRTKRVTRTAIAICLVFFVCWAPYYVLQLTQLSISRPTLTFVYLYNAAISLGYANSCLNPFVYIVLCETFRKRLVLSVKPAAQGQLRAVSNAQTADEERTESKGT
Sequence of Beta-2 adrenergic receptor (P07550 whole entry): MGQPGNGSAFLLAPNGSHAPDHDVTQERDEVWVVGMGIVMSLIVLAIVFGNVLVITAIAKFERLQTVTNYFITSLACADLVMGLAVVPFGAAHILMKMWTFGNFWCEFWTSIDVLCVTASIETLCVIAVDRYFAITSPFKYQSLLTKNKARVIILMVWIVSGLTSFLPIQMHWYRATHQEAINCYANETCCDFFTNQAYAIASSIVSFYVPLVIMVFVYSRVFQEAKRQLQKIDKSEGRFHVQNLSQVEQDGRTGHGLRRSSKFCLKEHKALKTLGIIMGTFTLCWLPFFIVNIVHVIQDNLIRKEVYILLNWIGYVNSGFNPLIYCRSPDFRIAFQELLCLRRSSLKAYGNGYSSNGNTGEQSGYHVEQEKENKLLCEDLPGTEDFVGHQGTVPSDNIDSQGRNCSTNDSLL
Sequence of Casein kinase I isoform delta (P48730 whole entry, canonical isoform): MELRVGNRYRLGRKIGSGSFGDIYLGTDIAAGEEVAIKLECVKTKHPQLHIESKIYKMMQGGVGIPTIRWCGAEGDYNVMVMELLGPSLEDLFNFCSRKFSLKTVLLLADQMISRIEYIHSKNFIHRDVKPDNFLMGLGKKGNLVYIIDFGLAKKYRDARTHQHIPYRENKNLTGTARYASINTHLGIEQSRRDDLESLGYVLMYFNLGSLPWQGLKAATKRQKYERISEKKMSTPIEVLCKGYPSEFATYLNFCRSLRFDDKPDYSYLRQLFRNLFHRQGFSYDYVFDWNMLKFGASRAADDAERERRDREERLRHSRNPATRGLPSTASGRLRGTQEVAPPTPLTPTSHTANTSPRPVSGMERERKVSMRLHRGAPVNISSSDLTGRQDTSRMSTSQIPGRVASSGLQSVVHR
Sequence of Mitogen-activated protein kinase 13 (O15264 whole entry): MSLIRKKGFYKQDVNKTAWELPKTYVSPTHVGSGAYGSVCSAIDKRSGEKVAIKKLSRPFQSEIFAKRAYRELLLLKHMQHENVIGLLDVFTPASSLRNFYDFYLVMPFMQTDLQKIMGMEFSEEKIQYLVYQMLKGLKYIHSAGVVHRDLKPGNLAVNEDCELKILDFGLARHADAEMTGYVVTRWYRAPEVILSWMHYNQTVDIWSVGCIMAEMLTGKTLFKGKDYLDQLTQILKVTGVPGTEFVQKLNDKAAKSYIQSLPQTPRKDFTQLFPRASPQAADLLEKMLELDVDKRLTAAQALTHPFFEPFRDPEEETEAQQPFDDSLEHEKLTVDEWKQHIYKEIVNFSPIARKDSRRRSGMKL
Sequence of Cysteine protease ATG4B (Q9Y4P1 whole entry): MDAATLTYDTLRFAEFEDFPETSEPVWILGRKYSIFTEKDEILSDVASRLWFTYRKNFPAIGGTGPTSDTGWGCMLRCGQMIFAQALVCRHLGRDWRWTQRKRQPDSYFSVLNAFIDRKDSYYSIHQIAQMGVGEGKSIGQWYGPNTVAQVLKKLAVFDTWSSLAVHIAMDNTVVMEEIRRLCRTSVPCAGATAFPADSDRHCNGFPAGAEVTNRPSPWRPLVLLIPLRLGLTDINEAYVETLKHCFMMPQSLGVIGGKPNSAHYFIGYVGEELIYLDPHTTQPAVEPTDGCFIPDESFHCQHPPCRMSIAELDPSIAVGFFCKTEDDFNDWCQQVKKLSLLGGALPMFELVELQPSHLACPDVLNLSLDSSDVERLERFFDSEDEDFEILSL
Sequence of Voltage-gated inwardly rectifying potassium channel KCNH2 (Q12809 whole entry): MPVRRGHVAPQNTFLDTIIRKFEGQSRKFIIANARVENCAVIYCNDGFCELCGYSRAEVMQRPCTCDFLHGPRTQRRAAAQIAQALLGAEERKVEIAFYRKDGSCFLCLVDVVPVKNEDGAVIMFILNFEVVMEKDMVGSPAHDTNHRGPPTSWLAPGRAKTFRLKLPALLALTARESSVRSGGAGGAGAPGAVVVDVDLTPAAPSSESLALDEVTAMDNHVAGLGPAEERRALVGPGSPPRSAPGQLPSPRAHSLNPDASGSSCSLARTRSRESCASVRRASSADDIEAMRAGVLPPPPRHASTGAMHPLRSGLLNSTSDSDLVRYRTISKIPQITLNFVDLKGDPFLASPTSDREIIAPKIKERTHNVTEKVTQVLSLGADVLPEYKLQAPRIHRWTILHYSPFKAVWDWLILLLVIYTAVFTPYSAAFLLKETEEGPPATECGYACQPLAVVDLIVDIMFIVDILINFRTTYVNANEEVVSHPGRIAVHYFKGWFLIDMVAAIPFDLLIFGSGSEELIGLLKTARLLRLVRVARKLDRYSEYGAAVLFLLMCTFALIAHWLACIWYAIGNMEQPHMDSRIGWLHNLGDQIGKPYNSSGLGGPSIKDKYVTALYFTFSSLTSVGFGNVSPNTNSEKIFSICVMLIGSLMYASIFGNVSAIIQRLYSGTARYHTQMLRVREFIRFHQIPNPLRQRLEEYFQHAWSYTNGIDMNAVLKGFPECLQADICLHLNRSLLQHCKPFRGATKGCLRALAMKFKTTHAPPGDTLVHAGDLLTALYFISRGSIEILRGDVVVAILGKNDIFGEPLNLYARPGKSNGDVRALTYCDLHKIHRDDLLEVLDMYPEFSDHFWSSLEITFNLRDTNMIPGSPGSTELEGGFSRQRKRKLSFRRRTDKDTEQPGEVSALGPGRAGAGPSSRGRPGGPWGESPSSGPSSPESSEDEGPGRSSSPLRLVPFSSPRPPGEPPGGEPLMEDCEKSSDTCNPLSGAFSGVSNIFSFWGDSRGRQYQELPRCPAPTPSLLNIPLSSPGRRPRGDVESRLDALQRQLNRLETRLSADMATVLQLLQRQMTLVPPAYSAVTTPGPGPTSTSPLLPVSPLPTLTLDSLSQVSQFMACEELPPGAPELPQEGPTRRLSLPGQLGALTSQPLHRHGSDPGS
Sequence of Phospholipase A2 (P04054 whole entry): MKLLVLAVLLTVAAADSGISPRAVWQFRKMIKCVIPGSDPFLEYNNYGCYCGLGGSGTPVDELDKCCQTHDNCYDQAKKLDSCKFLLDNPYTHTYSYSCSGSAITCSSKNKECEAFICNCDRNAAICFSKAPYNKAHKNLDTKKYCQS

Take `CC(C)(C)c1ccc(-c2noc(-c3ccno3)n2)cc1`: the IC50 (in the assay on HEK293; in assay [1]) was > 67.5 µM (inactive) throughout.
Consider `Cc1nc2ncccn2c1-c1csc(NCc2ccco2)n1`, for which, in the assay with Vero, the CC50 is > 40 µM (active).
`Cc1ccc(-c2cc(C(=O)N3CCc4ccccc4C3)no2)cc1`: the values for the IC50 at Cysteine protease ATG4B and on Phospholipase A2 were 13.3 µM (active) and 8.83 µM (active), respectively.
As to `O=C(C1CCCCN1C1c2ccccc2-c2ccccc21)N1CCN(c2ccc([N+](=O)[O-])cc2)CC1` (stereo not given), the IC50 in [2] and in assay [3] was > 20 µM (inactive) in each case.
Turning to `CC(=O)NC1C(=O)N(Cc2ccccc2)c2ccc(Br)cc21` (stereo not given), the IC50 on Hexokinase-1 and at Hexokinase HKDC1 was > 80 µM (inactive) each time.
As to `Cc1[nH]n(-c2ccccc2)c(=O)c1N=Nc1nccs1`, the EC50 in assay [4] is 5.42 µM (active); in assay [5], 4.29 µM (active). For the same compound, in the assay on Vero, the CC50 was > 40 µM (active).
For the compound `CC1(N2CCC(c3ccccc3)CC2)CCN(C(=O)CNc2ncnc3cc(Cl)c(Cl)cc23)C1` (stereo not given), the Ki in assay [6] was 3.16 µM (active).
For the compound `CCOC(=O)c1nn(-c2ccc(C(C)C)cc2)c(=O)c(Oc2ccc(OC)cc2)c1Cl`, the IC50 in [2] and in assay [3] was > 20 µM (inactive) each time.
On to `COc1ccc(C(=O)NC(CCc2ccccc2)CC(=O)O)cc1` (stereo not given), for which the EC50 in [7] was > 100 µM (inactive).
Consider `CN(Cc1ccccc1F)c1nc(-c2cccnc2)nc2ccccc12`, for which the EC50 in assay [8] is 6.08 µM (active).
On to `N#Cc1ncc2nc1OCCCCCOc1cc(OCCCO)c(Cl)cc1NC(=O)N2`, for which the Ki in assay [9] is > 7.94 µM (inactive).
As to `CCOP(=S)(OCC)Oc1nc(Cl)c(Cl)cc1Cl` [CHLORPYRIFOS], the AC50 in assay [10] was 50.1 µM (inconclusive).
As for `O=C(CN1C(=O)CCC1=O)Nc1nc(-c2nc3ccccc3s2)cs1`, the EC50 in [8] is 0.0444 µM (active).

The IC50 is the point on the concentration scale where inhibition reaches its midpoint. A word on the CC50: it is the concentration that lowers cell viability or growth by half. In general, Ki refers to a dissociation constant, usually derived from enzyme kinetics or from competition with a known ligand. In general, AC50 refers to the midpoint of the concentration-response curve, whichever way the signal moves.
